Experimental data reported in US20190048391A1, “COMPOSITIONS AND METHODS FOR IDENTIFYING ENZYME MODULATORS OR INHIBITORS” (priority 2013, published 2019).
Peptide text beside a SMILES is read from it. * marks the point of attachment. Decanoyl = CCCCCCCCCC(=O)*; CH2Cl = ClC*

Tests used:
Type in all cases: cell-based
Furin [1] = target: T1, Furin (Homo sapiens, UniProt P09958); assay: flow cytometry of FLAG surface expression in SupT1 clones stably expressing the wt gp120/gp41 boundary scaffold; details: SupT1 clones expressing wt gp120/41 boundary, FITC anti-FLAG, 0.9% without inhibitor
T1 construct: endogenous in cells; host or cells: SupT1 T-cell clones stably transduced with pBMN-gp160 min-wt
Text: In alternative embodiments, cell-based assays of the invention comprise use of a double-tagged engineered scaffold (of the invention) that allows discrimination between cleaved and non-cleaved events based on the cell surface expression of one or two tags, respectively. In alternative embodiments the scaffold protein travels to the cell surface and retains the FLAG tag only when processing of the gp120/gp41 boundary within the gp160 Env precursor is inhibited, e.g., by a putative drug. […]
Clonal populations should drastically increase robustness as 100% of the cells are expected to express the assay scaffold. […] Selected clones sorted into a 96-well plate, were amplified for a period of one month and analyzed by flow cytometry and fluorescence microscopy. […]
For that purpose, clones expressing the wt gp120/41 boundary were analyzed by flow cytometry following incubation with increasing concentration of the Furin inhibitor DCK. […] The same clones, treated with 50 mM DCK, were further analyzed by fluorescence microscopy prior and following incubation with 50 mM DCK. […]
Flow cytometry and sorting: Flow cytometry is performed on a BD FACSAria™ and/or FACSCanto (SDSU FACS core facility) with 488 nm and 633 nm lasers. Data is collected using FACSDiva 6.1.1™ software (BD Biosciences. San Jose, Calif.) and analyzed by FLOWJO™ (Tree Star, Inc., Ashland, Oreg.).

Furin [2] = target: T1, Furin; assay: fluorescence microscopy (HA-FITC, FLAG-CY3) of SupT1 clones stably expressing the wt gp120/gp41 boundary scaffold; details: 50 mM DCK
Experimental: For that purpose, clones expressing the wt gp120/41 boundary were analyzed by flow cytometry following incubation with increasing concentration of the Furin inhibitor DCK. FLAG surface expression is progressively recovered at 10 mM and 50 mM DCK, increasing form 0.9% to 39% and then 90% (FIG. 7). The same clones, treated with 50 mM DCK, were further analyzed by fluorescence microscopy prior and following incubation with 50 mM DCK. The mutant version was used as control.
FIG. 8 illustrates: Fluorescence microscopy images of SupT1 clones stably expressing the assay (as with FIGS. 5, 6 and 7, above). Clones expressing wild type (wt) or mutant version of the boundary were analyzed with HA-FITC and FLAG-CY3. Visible light, individual channels and merge are shown. I: Inhibitor, BF: Bright Field.

[3] = test system: cleavage of wildtype HIV-1 envelope boundary by Furin or similar enzymes; assay: multiplexed tdTomato-barcoded SupT1 flow cytometry assay, wildtype HIV-1 envelope boundary substrate; details: DCK treatment; wildtype HIV-1 envelope boundary population
Text: (§1) As example, FIG. 15 schematically illustrates a fluorescent flow cytometry analysis of three SupT1 T cell lines, each carrying a different substrate within the context of the assay elements. The distinct cell lines were previously genetically barcoded with different levels of tdTomato fluorescent protein. In that manner, the assay cells, when analyzed for tdTomato in the PE channel (FIG. 15A, panel A) show three populations (negative, dim, and bright tdTomato). […] The HA positive/FLAG positive population reveal Population 2 (dim for tdTomato expressing the mutant HIV envelope boundary; env-mut (R511S)).
(§2) FIG. 16 schematically illustrates a fluorescent flow cytometry analysis in the PE channel for td Tomato expression and FITC channel for FLAG expression. As a reminder, in the assay the second tag (FLAG here) is lost if cleavage occurs while the scaffold protein travels to the cell surface. […] When stained for FLAG, only population 2 (mutant HIV-1 boundary) retains the tag, while wild type HIV-1 boundary and DenV pr-M, as expected, lost it.
(§3) In alternative embodiments, exemplary assays of the invention are used for drug discovery. As a proof of principle, the same experiment with the three bar-coded populations was repeated in the presence of DCK, an inhibitor of Furin and similar protein convertases that are active in the Golgi/TransGolgi network. […]

[4] = test system: cleavage of DenV pr-M boundary; assay: multiplexed tdTomato-barcoded SupT1 flow cytometry assay, DenV pr-M boundary substrate; details: DCK treatment; DenV pr-M population
Text: as §1, §2, §3

T1 sequence (P09958 108-794): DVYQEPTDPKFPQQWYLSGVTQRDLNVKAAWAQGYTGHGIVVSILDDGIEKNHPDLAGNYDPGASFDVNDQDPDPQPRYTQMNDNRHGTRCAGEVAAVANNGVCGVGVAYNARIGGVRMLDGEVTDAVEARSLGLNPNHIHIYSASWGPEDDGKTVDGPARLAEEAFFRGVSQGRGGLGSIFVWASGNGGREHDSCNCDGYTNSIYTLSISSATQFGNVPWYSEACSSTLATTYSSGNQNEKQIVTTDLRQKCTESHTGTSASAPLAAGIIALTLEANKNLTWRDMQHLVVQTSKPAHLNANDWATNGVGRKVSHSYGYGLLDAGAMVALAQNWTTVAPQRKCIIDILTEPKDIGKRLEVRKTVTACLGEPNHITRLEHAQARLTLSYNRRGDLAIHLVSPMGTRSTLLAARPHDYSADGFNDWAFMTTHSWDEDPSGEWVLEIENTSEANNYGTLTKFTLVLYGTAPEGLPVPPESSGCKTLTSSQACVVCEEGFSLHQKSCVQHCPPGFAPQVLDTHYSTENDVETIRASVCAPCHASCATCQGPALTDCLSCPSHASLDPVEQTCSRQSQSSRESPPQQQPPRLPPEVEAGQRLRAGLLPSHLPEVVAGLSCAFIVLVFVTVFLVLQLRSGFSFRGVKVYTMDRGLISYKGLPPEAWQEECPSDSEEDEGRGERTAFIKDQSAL

Structure (SMILES): CCCCCCCCCC(=O)N[C@@H](CCCN=C(N)N)C(=O)N[C@H](C(=O)N[C@@H](CCCCN)C(=O)N[C@@H](CCCN=C(N)N)C(=O)CCl)C(C)C [DCK] (Decanoyl-RVKR-CH2Cl)
- FLAG surface expression (Furin [1]; 10 mM DCK): 39%
- FLAG surface expression (Furin [1]; 50 mM DCK): 90%
- red fluorescence (FLAG-CY3) of wt clones (Furin [2]): red fluorescence is restored
- second tag (FLAG) cell surface expression [3]: reconstitutes the second tag (FLAG) cell surface expression
- inhibition of cleavage (FLAG reconstitution) [4]: not inhibited by DCK
